Reference: patent publication US20250206730A1 (AUTOTELIC BIO INC., priority 2022, published 2025)

How the values were obtained:
ALK5 kinase = biological target: T1, ALK5 kinase (Homo sapiens, UniProt P36897); assay: LanthaScreen Eu Kinase Binding Assay; settings: Kinase Tracer 178, Eu-anti-GST Antibody, read-out: IC50 Enzyme
T1 sequence (P36897 34-503): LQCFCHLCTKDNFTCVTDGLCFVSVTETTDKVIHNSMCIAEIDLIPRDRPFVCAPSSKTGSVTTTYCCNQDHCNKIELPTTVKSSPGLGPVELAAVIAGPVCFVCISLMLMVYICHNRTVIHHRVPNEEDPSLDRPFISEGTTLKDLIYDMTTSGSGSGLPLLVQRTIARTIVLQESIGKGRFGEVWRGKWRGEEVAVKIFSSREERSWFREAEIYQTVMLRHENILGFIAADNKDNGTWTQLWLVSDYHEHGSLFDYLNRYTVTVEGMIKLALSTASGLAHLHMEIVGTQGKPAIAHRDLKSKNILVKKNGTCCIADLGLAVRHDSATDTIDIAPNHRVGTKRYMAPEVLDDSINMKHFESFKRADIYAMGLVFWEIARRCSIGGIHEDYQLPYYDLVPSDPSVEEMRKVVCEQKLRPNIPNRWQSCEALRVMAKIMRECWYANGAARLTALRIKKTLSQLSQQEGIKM
How it was run: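 Tracer-displacement TR-FRET: after 30 min RT compound–kinase preincubation, Eu-labelled anti-GST antibody plus Kinase Tracer 178 were incubated 60 min at RT. Binding was read as a lower 665 nm/615 nm emission ratio (excitation 340 nm).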

TGF-β signaling = assay: Assay for evaluating cellular inhibition of TGF-β signaling, 4T1 (SBE-luc2P) luciferase reporter; assay type: cell-based; settings: Mus musculus, 4T1, 4T1 (SBE-luc2P) transient pool, 0.2% FBS, 2 h pre-treatment, TGF-β1 2 ng/mL 24 h; read-out: IC50 4T1 Cell
How it was run: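 Luminescence from SMAD-binding-element luciferase was measured after 24 h of 2 ng/mL TGF-β1 at 37 °C, following 2 h compound pre-treatment. HEK293 stable reporter cells were used at 2.5×10^4/well in 0.5% FBS (~80% confluent); the 4T1 SBE-luc2P transient pool at 6×10^3/well in 0.2% FBS (~60% confluent).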

SMILES	IC50 (ALK5 kinase)	IC50 (TGF-β signaling)
CN(C)c1nc(-c2ccc3ccccc3c2)c(Oc2ccnc(Nc3cccc(S(N)(=O)=O)c3)c2)s1 [A-235, 3-((4-((2-(Dimethylamino)-4-(naphthalen-2-yl)thiazol-5-yl)oxy)pyridin-2-yl)amino)benzenesulfonamide]	> 100 nM	> 100 nM
Cc1nc(-c2ccccc2)c(Oc2ccnc(Nc3cccc(S(N)(=O)=O)c3)n2)s1 [A-238, 3-((4-((2-Methyl-4-phenylthiazol-5-yl)oxy)pyrimidin-2-yl)amino)benzenesulfonamide]	< 100 nM	< 100 nM
Cc1cccc(-c2nc(N)sc2Oc2ccnc(Nc3ccc(C(=O)O)cc3)c2)n1 [A-248, 4-((4-((2-Amino-4-(6-methylpyridin-2-yl)thiazol-5-yl)oxy)pyridin-2-yl)amino)benzoic acid]	< 100 nM	> 100 nM
Cc1cccc(-c2nc(N)sc2Oc2ccnc(Nc3cccc(C(=O)O)c3)c2)n1 [A-249, 3-((4-((2-Amino-4-(6-methylpyridin-2-yl)thiazol-5-yl)oxy)pyridin-2-yl)amino)benzoic acid]	< 100 nM	< 100 nM
CCc1nc(-c2cccc(C)n2)c(Oc2ccnc(Nc3cccc(S(N)(=O)=O)c3)c2)s1 [A-250, 3-((4-((2-Ethyl-4-(6-methylpyridin-2-yl)thiazol-5-yl)oxy)pyridin-2-yl)amino)benzenesulfonamide]	< 100 nM	< 100 nM
CCc1nc(-c2cccc(C)n2)c(Oc2ccnc(Nc3ccc(C(N)=O)cn3)c2)s1 [A-251, 6-((4-((2-Ethyl-4-(6-methylpyridin-2-yl)thiazol-5-yl)oxy)pyridin-2-yl)amino)nicotinamide]	< 100 nM	< 100 nM
CCc1nc(-c2cccc(C)n2)c(Oc2ccnc(Nc3ccc(C(=O)O)cn3)c2)s1 [A-252, 6-((4-((2-Ethyl-4-(6-methylpyridin-2-yl)thiazol-5-yl)oxy)pyridin-2-yl)amino)nicotinic acid]	< 100 nM	< 100 nM
CCc1nc(-c2cccc(C)n2)c(Oc2ccnc(Nc3ccc(C(=O)NC)cn3)c2)s1 [A-253, 6-((4-((2-Ethyl-4-(6-methylpyridin-2-yl)thiazol-5-yl)oxy)pyridin-2-yl)amino)-N-methylnicotinamide]	< 100 nM	< 100 nM
CCc1nc(-c2cccc(C)n2)c(Oc2ccnc(Nc3cccc(C(=O)O)n3)c2)s1 [A-254, 6-((4-((2-Ethyl-4-(6-methylpyridin-2-yl)thiazol-5-yl)oxy)pyridin-2-yl)amino)picolinic acid]	> 100 nM	< 100 nM
CCc1nc(-c2cccc(C)n2)c(Oc2ccnc(Nc3cccc(C(N)=O)n3)c2)s1 [A-255, 6-((4-((2-Ethyl-4-(6-methylpyridin-2-yl)thiazol-5-yl)oxy)pyridin-2-yl)amino)picolinamide]	< 100 nM	< 100 nM
CCc1nc(-c2cccc(C)n2)c(Oc2ccnc(Nc3cccc(C(=O)NC)n3)c2)s1 [A-256, 6-((4-((2-Ethyl-4-(6-methylpyridin-2-yl)thiazol-5-yl)oxy)pyridin-2-yl)amino)-N-methylpicolinamide]	< 100 nM	< 100 nM
CCc1nc(-c2cccc(C)n2)c(Oc2ccnc(Nc3cccc(C(=O)O)c3)c2)s1 [A-257, 3-((4-((2-Ethyl-4-(6-methylpyridin-2-yl)thiazol-5-yl)oxy)pyridin-2-yl)amino)benzoic acid]	< 100 nM	< 100 nM
CCc1nc(-c2cccc(C)n2)c(Oc2ccnc(Nc3cccc(C(N)=O)c3)c2)s1 [A-258, 3-((4-((2-Ethyl-4-(6-methylpyridin-2-yl)thiazol-5-yl)oxy)pyridin-2-yl)amino)benzamide]	< 100 nM	< 100 nM
CCc1nc(-c2cccc(C)n2)c(Oc2ccnc(Nc3cccc(C(=O)NC)c3)c2)s1 [A-259, 3-((4-((2-Ethyl-4-(6-methylpyridin-2-yl)thiazol-5-yl)oxy)pyridin-2-yl)amino)-N-methylbenzamide]	< 100 nM	< 100 nM
CCc1nc(-c2cccc(C)n2)c(Oc2ccnc(Nc3cncc(C(=O)O)c3)c2)s1 [A-260, 5-((4-((2-Ethyl-4-(6-methylpyridin-2-yl)thiazol-5-yl)oxy)pyridin-2-yl)amino)nicotinic acid]	< 100 nM	> 100 nM
CCc1nc(-c2cccc(C)n2)c(Oc2ccnc(Nc3cncc(C(N)=O)c3)c2)s1 [A-261, 5-((4-((2-Ethyl-4-(6-methylpyridin-2-yl)thiazol-5-yl)oxy)pyridin-2-yl)amino)nicotinamide]	< 100 nM	< 100 nM
CCc1nc(-c2cccc(C)n2)c(Oc2ccnc(Nc3cncc(C(=O)NC)c3)c2)s1 [A-262, 5-((4-((2-Ethyl-4-(6-methylpyridin-2-yl)thiazol-5-yl)oxy)pyridin-2-yl)amino)-N-methylnicotinamide]	< 100 nM	< 100 nM
CCc1nc(-c2cccc(C)n2)c(Oc2ccnc(Nc3ccnc(C(=O)O)c3)c2)s1 [A-263, 4-((4-((2-Ethyl-4-(6-methylpyridin-2-yl)thiazol-5-yl)oxy)pyridin-2-yl)amino)picolinic acid]	< 100 nM	> 100 nM
CCc1nc(-c2cccc(C)n2)c(Oc2ccnc(Nc3ccnc(C(=O)NC)c3)c2)s1 [A-265, 4-((4-((2-Ethyl-4-(6-methylpyridin-2-yl)thiazol-5-yl)oxy)pyridin-2-yl)amino)-N-methylpicolinamide]	< 100 nM	< 100 nM
CCc1nc(-c2cccc(C)n2)c(Oc2ccnc(Nc3cc(C(=O)O)ccn3)c2)s1 [A-266, 2-((4-((2-Ethyl-4-(6-methylpyridin-2-yl)thiazol-5-yl)oxy)pyridin-2-yl)amino)isonicotinic acid]	< 100 nM	> 100 nM
CCc1nc(-c2cccc(C)n2)c(Oc2ccnc(Nc3cc(C(N)=O)ccn3)c2)s1 [A-267, 2-((4-((2-Ethyl-4-(6-methylpyridin-2-yl)thiazol-5-yl)oxy)pyridin-2-yl)amino)isonicotinamide]	< 100 nM	< 100 nM
CCc1nc(-c2cccc(C)n2)c(Oc2ccnc(Nc3cc(C(=O)NC)ccn3)c2)s1 [A-268, 2-((4-((2-Ethyl-4-(6-methylpyridin-2-yl)thiazol-5-yl)oxy)pyridin-2-yl)amino)-N-methylisonicotinamide]	< 100 nM	< 100 nM
Cc1cccc(-c2nc(C3CC3)sc2Oc2ccnc(Nc3cccc(C(N)=O)c3)c2)n1 [A-274, 3-((4-((2-Cyclopropyl-4-(6-methylpyridin-2-yl)thiazol-5-yl)oxy)pyridin-2-yl)amino)benzamide]	< 100 nM	< 100 nM
Cc1cccc(-c2nc(C3CC3)sc2Oc2ccnc(Nc3ccc(C(N)=O)cn3)c2)n1 [A-275]	< 100 nM	< 100 nM
Cc1cccc(-c2nc(N(C)C)sc2Oc2ccnc(Nc3cccc(S(N)(=O)=O)c3)c2)n1 [A-283, 3-((4-((2-(Dimethylamino)-4-(6-methylpyridin-2-yl)thiazol-5-yl)oxy)pyridin-2-yl)amino)benzenesulfonamide]	< 100 nM	< 100 nM
Cc1cccc(-c2nc(N(C)C)sc2Oc2ccnc(Nc3ccc(C(N)=O)cn3)c2)n1 [A-284, 6-((4-((2-(Dimethylamino)-4-(6-methylpyridin-2-yl)thiazol-5-yl)oxy)pyridin-2-yl)amino)nicotinamide]	< 100 nM	< 100 nM
